The source of these data is patent publication US20120121591A1 (priority 2009, published 2012).

Holding throughout (assay type): cell-based
The target in one assay is hKv1.3 (Homo sapiens, UniProt P22001). The experiment in a line: cell-based. Particulars: Kv1.3 (IWQ) IC50 (nM, Avg).
The test system of assay [1] is IL-2 secretion from T cells in human whole blood. The settings on record: read-out: WB (IL-2) IC50 (nM, Avg).
Assay [2] has as its system IFN-g secretion from T cells in human whole blood.
The mark [3] stands for this setting: read-out: WB (IFNg) IC50 (nM, Avg).

Like-named read-outs stand apart in the source and are kept apart here.

hKv1.3, sequence (P22001 whole entry): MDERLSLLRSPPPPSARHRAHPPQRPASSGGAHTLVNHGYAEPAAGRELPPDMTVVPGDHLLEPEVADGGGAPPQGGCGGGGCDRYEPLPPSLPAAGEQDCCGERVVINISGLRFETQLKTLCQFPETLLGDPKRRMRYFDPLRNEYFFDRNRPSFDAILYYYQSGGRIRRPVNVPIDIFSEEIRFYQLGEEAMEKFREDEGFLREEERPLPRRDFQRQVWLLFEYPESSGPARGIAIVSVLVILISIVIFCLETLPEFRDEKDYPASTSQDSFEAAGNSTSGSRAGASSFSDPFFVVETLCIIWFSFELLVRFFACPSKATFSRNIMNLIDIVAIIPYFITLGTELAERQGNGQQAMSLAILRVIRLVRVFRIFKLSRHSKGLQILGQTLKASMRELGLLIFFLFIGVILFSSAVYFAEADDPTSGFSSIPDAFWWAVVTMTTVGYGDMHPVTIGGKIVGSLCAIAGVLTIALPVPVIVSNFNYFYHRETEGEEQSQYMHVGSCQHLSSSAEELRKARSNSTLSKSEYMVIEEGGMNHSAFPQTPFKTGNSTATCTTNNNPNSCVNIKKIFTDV

Turning to `CC[C@H](C)[C@@H]1NC(=O)[C@@H](NC(=O)[C@H](CO)NC(=O)[C@@H](N)CCCNC(=N)N)CSSC[C@@H](C(=O)O)NC(=O)[C@H]([C@@H](C)O)NC(=O)CNC(=O)[C@@H]2CSSC[C@@H]3NC(=O)[C@H](CCC(N)=O)NC(=O)[C@H](Cc4ccccc4)NC(=O)[C@H](C)NC(=O)[C@H]([C@@H](C)O)NC(=O)[C@H](CSSC[C@H](NC(=O)[C@H](Cc4ccccc4)NC(=O)[C@H](CCCNC(=N)N)NC(=O)[C@H](CC(C)C)NC(=O)[C@H](CCCNC(=N)N)NC(=O)[C@H](Cc4ccc(O)cc4)NC(=O)[C@H](CCCCN)NC(=O)[C@H](CCSC)NC(=O)[C@H](CO)NC(=O)[C@H](Cc4c[nH]cn4)NC(=O)[C@H](CCCCN)NC3=O)C(=O)N[C@@H](CCCNC(=N)N)C(=O)N[C@@H](CCCCN)C(=O)N[C@@H]([C@@H](C)O)C(=O)N2)NC(=O)[C@H](CCCNC(=N)N)NC(=O)[C@H](CO)NC(=O)[C@H](CCCCN)NC(=O)[C@@H]2CCCN2C(=O)[C@H]([C@@H](C)CC)NC(=O)[C@H]([C@@H](C)O)NC(=O)[C@H](CC(=O)O)NC1=O` [[Arg26]ShK], the IC50 at hKv1.3 worked out at 0.279 nM; in assay [1], 0.208 nM; in assay [2] (setting [3]), 0.572 nM.

Turning to `CC[C@H](C)[C@@H]1NC(=O)[C@@H](NC(=O)[C@H](CO)NC(=O)[C@@H](N)CCCNC(=N)N)CSSC[C@@H](C(=O)O)NC(=O)[C@H]([C@@H](C)O)NC(=O)CNC(=O)[C@@H]2CSSC[C@@H]3NC(=O)[C@H](CCC(N)=O)NC(=O)[C@H](Cc4ccccc4)NC(=O)[C@H](C)NC(=O)[C@H]([C@@H](C)O)NC(=O)[C@H](CSSC[C@H](NC(=O)[C@H](CCCNC(=N)N)NC(=O)[C@H](CO)NC(=O)[C@H](CC(C)C)NC(=O)[C@H](CCCNC(=N)N)NC(=O)[C@H](Cc4ccc(O)cc4)NC(=O)[C@H](CCCCN)NC(=O)[C@H](CCSC)NC(=O)[C@H](CO)NC(=O)[C@H](Cc4c[nH]cn4)NC(=O)[C@H](CCCCN)NC3=O)C(=O)N[C@@H](CCCNC(=N)N)C(=O)N[C@@H](CCCCN)C(=O)N[C@@H]([C@@H](C)O)C(=O)N2)NC(=O)[C@H](CCCNC(=N)N)NC(=O)[C@H](CO)NC(=O)[C@H](CCCCN)NC(=O)[C@@H]2CCCN2C(=O)[C@H]([C@@H](C)CC)NC(=O)[C@H]([C@@H](C)O)NC(=O)[C@H](CC(=O)O)NC1=O` [[Arg27]ShK], the IC50 against hKv1.3 is 100 nM; in assay [1], 13 nM; in assay [2] (setting [3]) it was 59.7 nM.

As for `CC[C@H](C)[C@@H]1NC(=O)[C@@H](NC(=O)[C@H](CO)NC(=O)[C@@H](N)CCCNC(=N)N)CSSC[C@@H](C(=O)O)NC(=O)[C@H]([C@@H](C)O)NC(=O)CNC(=O)[C@@H]2CSSC[C@@H]3NC(=O)[C@H](CCC(N)=O)NC(=O)[C@H](Cc4ccccc4)NC(=O)[C@H](C)NC(=O)[C@H]([C@@H](C)O)NC(=O)[C@H](CSSC[C@H](NC(=O)[C@H](Cc4ccccc4)NC(=O)[C@H](CO)NC(=O)[C@H](CC(C)C)NC(=O)[C@H](CCCNC(=N)N)NC(=O)[C@H](Cc4ccc(O)cc4)NC(=O)[C@H](CCCCN)NC(=O)[C@H](CCSC)NC(=O)[C@H](CO)NC(=O)[C@H](Cc4c[nH]cn4)NC(=O)[C@H](CCCCN)NC3=O)C(=O)N[C@@H](CCCNC(=N)N)C(=O)N[C@@H](CCCNC(=N)N)C(=O)N[C@@H]([C@@H](C)O)C(=O)N2)NC(=O)[C@H](CCCNC(=N)N)NC(=O)[C@H](CO)NC(=O)[C@H](CCCCN)NC(=O)[C@@H]2CCCN2C(=O)[C@H]([C@@H](C)CC)NC(=O)[C@H]([C@@H](C)O)NC(=O)[C@H](CC(=O)O)NC1=O` [[Arg30]ShK], the IC50 against hKv1.3 was 0.04 nM; in assay [1], 0.014 nM; in assay [2] (setting [3]) it was 0.027 nM.

Take `CC[C@H](C)[C@@H]1NC(=O)[C@@H](NC(=O)[C@H](CO)NC(=O)[C@@H](N)CCCNC(=N)N)CSSC[C@@H](C(=O)O)NC(=O)[C@H]([C@@H](C)O)NC(=O)CNC(=O)[C@@H]2CSSC[C@@H]3NC(=O)[C@H](CCC(N)=O)NC(=O)[C@H](Cc4ccccc4)NC(=O)[C@H](C)NC(=O)[C@H]([C@@H](C)O)NC(=O)[C@H](CSSC[C@H](NC(=O)[C@H](Cc4ccccc4)NC(=O)[C@H](CO)NC(=O)[C@H](CC(C)C)NC(=O)[C@H](CCCNC(=N)N)NC(=O)[C@H](Cc4ccc(O)cc4)NC(=O)[C@H](CCCCN)NC(=O)[C@H](CCSC)NC(=O)[C@H](CO)NC(=O)[C@H](Cc4c[nH]cn4)NC(=O)[C@H](CCCCN)NC3=O)C(=O)N[C@@H](CCCNC(=N)N)C(=O)N[C@@H](CCCCN)C(=O)N[C@@H](CCCNC(=N)N)C(=O)N2)NC(=O)[C@H](CCCNC(=N)N)NC(=O)[C@H](CO)NC(=O)[C@H](CCCCN)NC(=O)[C@@H]2CCCN2C(=O)[C@H]([C@@H](C)CC)NC(=O)[C@H]([C@@H](C)O)NC(=O)[C@H](CC(=O)O)NC1=O` [[Arg31]ShK]: the values for the IC50 (against hKv1.3; in assay [1]; in assay [2] (setting [3])) were 3.3 nM, 12 nM and 54.8 nM, respectively.

Regarding `CC[C@H](C)[C@@H]1NC(=O)[C@@H](NC(=O)[C@H](CO)NC(=O)[C@@H](N)CCCNC(=N)N)CSSC[C@@H](C(=O)O)NC(=O)[C@H]([C@@H](C)O)NC(=O)[C@H](CCCNC(=N)N)NC(=O)[C@@H]2CSSC[C@@H]3NC(=O)[C@H](CCC(N)=O)NC(=O)[C@H](Cc4ccccc4)NC(=O)[C@H](C)NC(=O)[C@H]([C@@H](C)O)NC(=O)[C@H](CSSC[C@H](NC(=O)[C@H](Cc4ccccc4)NC(=O)[C@H](CO)NC(=O)[C@H](CC(C)C)NC(=O)[C@H](CCCNC(=N)N)NC(=O)[C@H](Cc4ccc(O)cc4)NC(=O)[C@H](CCCCN)NC(=O)[C@H](CCSC)NC(=O)[C@H](CO)NC(=O)[C@H](Cc4c[nH]cn4)NC(=O)[C@H](CCCCN)NC3=O)C(=O)N[C@@H](CCCNC(=N)N)C(=O)N[C@@H](CCCCN)C(=O)N[C@@H]([C@@H](C)O)C(=O)N2)NC(=O)[C@H](CCCNC(=N)N)NC(=O)[C@H](CO)NC(=O)[C@H](CCCCN)NC(=O)[C@@H]2CCCN2C(=O)[C@H]([C@@H](C)CC)NC(=O)[C@H]([C@@H](C)O)NC(=O)[C@H](CC(=O)O)NC1=O` [[Arg33]ShK], the IC50 against hKv1.3 was 0.102 nM; in assay [1] it was 0.068 nM; in assay [2] (setting [3]), 0.232 nM.

On to `CCCC[C@@H]1NC(=O)[C@H](CO)NC(=O)[C@H](Cc2c[nH]cn2)NC(=O)[C@H](CCCCN)NC(=O)[C@@H]2CSSC[C@@H]3NC(=O)[C@H]([C@@H](C)O)NC(=O)[C@H](CCCCN)NC(=O)[C@H](CCCNC(=N)N)NC(=O)[C@H](CSSC[C@H](NC(=O)[C@H](CCCNC(=N)N)NC(=O)[C@H](CO)NC(=O)[C@H](CCCCN)NC(=O)[C@@H]4CCCN4C(=O)[C@H]([C@@H](C)CC)NC(=O)[C@H]([C@@H](C)O)NC(=O)[C@H](CC(=O)O)NC(=O)[C@H]([C@@H](C)CC)NC(=O)[C@@H](NC(=O)[C@H](CO)NC(=O)[C@@H](N)CCCNC(=N)N)CSSC[C@@H](C(N)=O)NC(=O)[C@H]([C@@H](C)O)NC(=O)CNC3=O)C(=O)N[C@@H]([C@@H](C)O)C(=O)N[C@@H](C)C(=O)N[C@@H](Cc3ccccc3)C(=O)N[C@@H](CC(N)=O)C(=O)N2)NC(=O)[C@H](Cc2ccccc2)NC(=O)[C@H](CO)NC(=O)[C@H](CC(C)C)NC(=O)[C@H](CCCNC(=N)N)NC(=O)[C@H](Cc2ccc(O)cc2)NC(=O)[C@H](CCCCN)NC1=O` [[Asn16,Nle21]ShK-amide], for which the values for the IC50 (against hKv1.3; in assay [1]; in assay [2] (setting [3])) were 0.171 nM, 0.689 nM and 1.07 nM, respectively.

As for `CC[C@H](C)[C@@H]1NC(=O)[C@@H](NC(=O)[C@H](CO)NC(=O)[C@@H](N)CCCNC(=N)N)CSSC[C@@H](C(=O)O)NC(=O)[C@H]([C@@H](C)O)NC(=O)CNC(=O)[C@@H]2CSSC[C@@H]3NC(=O)[C@H](CCN)NC(=O)[C@H](Cc4ccccc4)NC(=O)[C@H](C)NC(=O)[C@H]([C@@H](C)O)NC(=O)[C@H](CSSC[C@H](NC(=O)[C@H](Cc4ccccc4)NC(=O)[C@H](CO)NC(=O)[C@H](CC(C)C)NC(=O)[C@H](CCCNC(=N)N)NC(=O)[C@H](Cc4ccc(O)cc4)NC(=O)[C@H](CCCCN)NC(=O)[C@H](CCSC)NC(=O)[C@H](CO)NC(=O)[C@H](Cc4c[nH]cn4)NC(=O)[C@H](CCCCN)NC3=O)C(=O)N[C@@H](CCCNC(=N)N)C(=O)N[C@@H](CCCCN)C(=O)N[C@@H]([C@@H](C)O)C(=O)N2)NC(=O)[C@H](CCCNC(=N)N)NC(=O)[C@H](CO)NC(=O)[C@H](CCCCN)NC(=O)[C@@H]2CCCN2C(=O)[C@H]([C@@H](C)CC)NC(=O)[C@H]([C@@H](C)O)NC(=O)[C@H](CC(=O)O)NC1=O` [[Dab16]ShK], the IC50 against hKv1.3 stood at 0.082 nM; in assay [1], 0.086 nM; in assay [2] (setting [3]) it was 0.223 nM.

As for `CC[C@H](C)[C@@H]1NC(=O)[C@@H](NC(=O)[C@H](CO)NC(=O)[C@@H](N)CCC(=O)O)CSSC[C@@H](C(=O)O)NC(=O)[C@H]([C@@H](C)O)NC(=O)CNC(=O)[C@@H]2CSSC[C@@H]3NC(=O)[C@H](CCC(N)=O)NC(=O)[C@H](Cc4ccccc4)NC(=O)[C@H](C)NC(=O)[C@H]([C@@H](C)O)NC(=O)[C@H](CSSC[C@H](NC(=O)[C@H](Cc4ccccc4)NC(=O)[C@H](CO)NC(=O)[C@H](CC(C)C)NC(=O)[C@H](CCCNC(=N)N)NC(=O)[C@H](Cc4ccc(O)cc4)NC(=O)[C@H](CCCCN)NC(=O)[C@H](CCSC)NC(=O)[C@H](CO)NC(=O)[C@H](Cc4c[nH]cn4)NC(=O)[C@H](CCCCN)NC3=O)C(=O)N[C@@H](CCCNC(=N)N)C(=O)N[C@@H](CCCCN)C(=O)N[C@@H]([C@@H](C)O)C(=O)N2)NC(=O)[C@H](CCCNC(=N)N)NC(=O)[C@H](CO)NC(=O)[C@H](CCCCN)NC(=O)[C@@H]2CCCN2C(=O)[C@H]([C@@H](C)CC)NC(=O)[C@H]([C@@H](C)O)NC(=O)[C@H](CC(=O)O)NC1=O` [[Glu1]ShK], the IC50 on hKv1.3 amounted to 0.144 nM; in assay [1], 0.213 nM; in assay [2] (read-out: WB (IFNg) IC5- (nM, Avg)), 0.249 nM.
